Measurements: US20090263472A1, “ENDOTHELIN RECEPTOR ANTAGONIST DERIVATIVES” (NICOX S.A., priority 2006, published 2009)

Key:
[1] = test system: spontaneously hypertensive rats (SHR); assay: Antihypertensive activity in vivo, tail-cuff systolic blood pressure; design: species or system rat; conditions: for Δ SBP (Systolic Blood Pressure) 1 hr / Δ SBP (Systolic Blood Pressure) 3 hrs / Δ SBP (Systolic Blood Pressure) 6 hrs: p.o., delta vs own baseline, bosentan 100 mpk, compound of EX. 1 equimolar dose; for Δ SBP (Systolic Blood Pressure) 1 hr: 1 hr after treatment; for Δ SBP (Systolic Blood Pressure) 3 hrs: 3 hrs after treatment; for Δ SBP (Systolic Blood Pressure) 6 hrs: 6 hrs after treatment
Experimental: Ten days prior to the beginning of the experiment, spontaneously hypertensive rats (SHR) are trained daily for the measurement of blood pressure by the tail-cuff method ([…] et Al.; Am. J. Physiol. Heart Circ. Physiol 286: […]-[…], 2004) using model BP-2000 Blood Pressure Analysis System from U.Basile (Comerio, VA Italy). Each animal is placed in individuals cages into a warming cupboard (37° C.) for 15 minutes. […] Average of blood pressure values from individual rats are evaluated from 3/5 different consecutive measurements. […] The data are processed both as the absolute value or as a delta between the absolute value and its own baseline.

[2] = test system: isolated rabbit thoracic aorta preparations; assay: Studies on vascular tone: vasorelaxation of noradrenaline-precontracted aortic rings; assay type: cell-based; conditions: for relaxation of precontracted aortic rings (in words): cumulative concentration-response curve, noradrenaline 1 μM precontraction

EC50 (μM) ± sem ([2]; concentration producing 50% of maximum relaxation, aortic rings contracted with noradrenaline 1 μM, functional endothelium)	EC50 ([2]; concentration producing 50% of maximum relaxation, aortic rings contracted with noradrenaline 1 μM, functional endothelium, read-out: EC50 (μM) ± sem) [µM]	SMILES	Δ SBP (Systolic Blood Pressure) 1 hr [1] [mmHg]	Δ SBP (Systolic Blood Pressure) 3 hrs [1] [mmHg]	Δ SBP (Systolic Blood Pressure) 6 hrs [1] [mmHg]	relaxation of precontracted aortic rings (in words) [2]	reduction in blood pressure (in words) ([1]; oral administration)
no effect	–	COc1ccccc1Oc1c(NS(=O)(=O)c2ccc(C(C)(C)C)cc2)nc(-c2ncccn2)nc1OCCO [Bosentan, reference compound]	0	6	−1	did not produce relaxation at any of the concentration tested	–
–	33.9 ± 2.5	COc1ccccc1Oc1c(NS(=O)(=O)c2ccc(C(C)(C)C)cc2)nc(-c2ncccn2)nc1OCCOC(=O)CCCO[N+](=O)[O-] [Compound of EX. 1]	−8	−18	−6	able to induce relaxation in a concentration-dependent manner	able to induce a clear reduction in blood pressure
